Like-named read-outs stand apart in the source and are kept apart here.
Experiments:
HCT116 MTAP null cells = assay: HCT116 MTAP null cell line proliferation (CellTiter-Glo cell viability, 6 days); assay type: cell-based; settings: HCT116 MTAP null cells, 6 days of treatment, CellTiter-Glo cell viability, read-out: HCT-116 MTAP null IC50
Procedure, shortened: (§1)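 Viability by CellTiter-Glo after 6 days' drug exposure in wild-type HCT116 and its MTAP-null knockout, with DMSO-only control. Dosing used either 1:3 steps (top 1 or 10 μM) or 22 points in 1:2 steps (top 10 or 50 μM). IC50 taken where the fitted curve crosses 50% of control.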

HCT116 WT cells = assay: HCT116 WT cell line proliferation (CellTiter-Glo cell viability, 6 days); assay type: cell-based; settings: HCT116 WT (parent) cells, 6 days of treatment, CellTiter-Glo cell viability, read-out: HCT-116 WT IC50
Procedure, shortened: as §1

Molecule `C[C@@H]1COC[C@H](c2ccc(C(F)(F)F)cn2)N1C(=O)c1cc2c(cc1F)nc(N)c1c2cnn1C` [Example 517, (4-amino-7-fluoro-3-methyl-3H-pyrazolo[3,4-c]quinolin-8-yl)((3R,5S)-3-methyl-5-(5-(trifluoromethyl)-2-pyridinyl)-4-morpholinyl)methanone] has an IC50 (HCT116 MTAP null cells; HCT116-MTAP null, 144 h) of 8 nM and an IC50 (HCT116 WT cells; Homo sapiens, HCT-116, 144 h) of 151 nM.
For `Nc1nc2cnc(C(=O)N3CCOC[C@H]3c3ccc(C(F)(F)F)s3)cc2c2c1COC2` (single isomer, unassigned) [Example 616], the IC50 (HCT116 MTAP null cells; HCT116-MTAP null, 144 h) was 3240 nM and the IC50 (HCT116 WT cells; Homo sapiens, HCT-116, 144 h) was > 10000 nM.
With `Nc1nc2ccc(C(=O)N3CCOC[C@H]3c3ccc(C(F)(F)F)nc3)cc2c2c1COC2` (single isomer, unassigned) [Example 610] the IC50 (HCT116 MTAP null cells; HCT116-MTAP null, 144 h) was > 1000 nM and the IC50 (HCT116 WT cells; Homo sapiens, HCT-116, 144 h) was > 10000 nM.
With `Nc1nc2ccc(C(=O)N3CCOC[C@H]3c3ccc(C(F)(F)F)cc3)cc2c2ccsc12` (single isomer, unassigned) [Example 487] the IC50 (HCT116 MTAP null cells; HCT116-MTAP null, 144 h) was > 1000 nM and the IC50 (HCT116 WT cells; Homo sapiens, HCT-116, 144 h) was > 10000 nM.
With `C[C@H]1OCc2c1c(N)nc1ccc(C(=O)N3C[C@H](c4ccc(F)cc4)C(C)(C)C3)cc21` (single isomer, unassigned) [Example 463] the IC50 (HCT116 MTAP null cells; HCT116-MTAP null, 144 h) was 122 nM and the IC50 (HCT116 WT cells; Homo sapiens, HCT-116, 144 h) was 6550 nM.
Molecule `Nc1nc2ccc(C(=O)N3CCOC[C@@H]3c3ccc(OC(F)(F)F)cc3)cc2c2c1COC2` [Example 335, (4-amino-1,3-dihydrofuro[3,4-c]quinolin-8-yl)-[(3S)-3-[4-(trifluoromethoxy)phenyl]morpholin-4-yl]methanone] has an IC50 (HCT116 MTAP null cells; HCT116-MTAP null, 144 h) of 91 nM and an IC50 (HCT116 WT cells; Homo sapiens, HCT-116, 144 h) of 2690 nM.
Molecule `Nc1nc2cc(F)c(C(=O)N3CC(c4ccc(C(F)(F)F)cc4)C3)cc2c2c1COC2` [Example 422] has an IC50 (HCT116 MTAP null cells) of 633 nM and an IC50 (HCT116 WT cells) of 12500 nM.
`Nc1nc2ccc(C(=O)N3CCOC[C@@H]3c3ccc(C(F)(F)F)nn3)cc2c2c1COC2` (single isomer, unassigned) [Example 593] was tested, and the IC50 (HCT116 MTAP null cells; HCT116-MTAP null, 144 h) was 936 nM and the IC50 (HCT116 WT cells; Homo sapiens, HCT-116, 144 h) was > 10000 nM.
`Nc1nc2ccc(C(=O)N3CCOC[C@@H]3c3ccc(C(F)(F)F)cc3)cc2n2ccnc12` [Example 403, (4-aminoimidazo[1,2-a]quinoxalin-8-yl)((3S)-3-(4-(trifluoromethyl)phenyl)-4-morpholinyl)methanone] showed an IC50 (HCT116 MTAP null cells; HCT116-MTAP null, 144 h) of 765 nM and an IC50 (HCT116 WT cells; Homo sapiens, HCT-116, 144 h) of 673 nM.
`C[C@H]1OCc2c1c(N)nc1cnc(C(=O)N3CCOC[C@@H]3c3ccc(C(F)(F)F)cc3)cc21` (racemic) [Example 338, ((3R)-4-amino-3-methyl-1,3-dihydrofuro[3,4-c][1,7]naphthyridin-8-yl)((3S)-3-(4-(trifluoromethyl)phenyl)-4-morpholinyl)methanone and ((3S)-((4-amino-3-methyl-1,3-dihydrofuro[3,4-c][1,7]naphthyridin-8-yl)((3S)-3-(4-(trifluoromethyl)phenyl)-4-morpholinyl)methanone] was tested, and the IC50 (HCT116 MTAP null cells; HCT116-MTAP null, 144 h) was 100 nM and the IC50 (HCT116 WT cells; Homo sapiens, HCT-116, 144 h) was 5020 nM.
`C[C@H]1OCc2c1c(N)nc1ccc(C(=O)N3CCOC[C@H]3c3ccc(F)c(C(F)(F)F)c3)cc21` (racemic) [Example 374, ((3R)-4-amino-3-methyl-1,3-dihydrofuro [3,4-c]quinolin-8-yl)((3R)-3-(4-fluoro-3-(trifluoromethyl)phenyl)-4-morpholinyl)methanone and ((3R)-4-amino-3-methyl-1,3-dihydrofuro[3,4-c]quinolin-8-yl)((3S)-3-(4-fluoro-3-(trifluoromethyl)phenyl)-4-morpholinyl)methanone] was tested, and the IC50 (HCT116 MTAP null cells; HCT116-MTAP null, 144 h) was 161 nM and the IC50 (HCT116 WT cells; Homo sapiens, HCT-116, 144 h) was 9890 nM.
For `Nc1nc2cc(Cl)c(C(=O)N3CCOC[C@@H]3c3ccc(C(F)(F)F)cc3)cc2c2c1COC2` [Example 529, (4-amino-7-chloro-1,3-dihydrofuro[3,4-c]quinolin-8-yl)((3S)-3-(4-(trifluoromethyl)phenyl)-4-morpholinyl)methanone], the IC50 (HCT116 MTAP null cells; HCT116-MTAP null, 144 h) was 18 nM and the IC50 (HCT116 WT cells; Homo sapiens, HCT-116, 144 h) was 502 nM.
Work on `Cn1ncc2c(N)nc3cnc(C(=O)N4CCOC[C@@H]4c4ccc(OC(F)F)nn4)cc3c21` [Example 451, (4-amino-1-methyl-1H-pyrazolo[4,3-c][1,7]naphthyridin-8-yl)((3S)-3-(6-(difluoromethoxy)-3-pyridazinyl)-4-morpholinyl)methanone] yielded an IC50 (HCT116 MTAP null cells; HCT116-MTAP null, 144 h) of 162 nM and an IC50 (HCT116 WT cells; Homo sapiens, HCT-116, 144 h) of 15400 nM.
`C[C@H]1OCc2c1c(N)nc1cnc(C(=O)N3CCOC[C@@H]3c3ccc(C(F)(F)F)cc3)cc21` (single isomer, unassigned) [Example 452] showed an IC50 (HCT116 MTAP null cells; HCT116-MTAP null, 144 h) of 49 nM and an IC50 (HCT116 WT cells; Homo sapiens, HCT-116, 144 h) of 3460 nM.
For `C[C@H]1COC[C@@H](c2ccc(C(F)(F)F)nc2)N1C(=O)c1cc2c3c(c(N)nc2cn1)COC3` (racemic) [Example 340, (4-amino-1,3-dihydrofuro[3,4-c][1,7]naphthyridin-8-yl)((3R,5S)-3-methyl-5-(6-(trifluoromethyl)-3-pyridinyl)-4-morpholinyl)methanone and (4-amino-1,3-dihydrofuro[3,4-c][1,7]naphthyridin-8-yl)((3S,5R)-3-methyl-5-(6-(trifluoromethyl)-3-pyridinyl)-4-morpholinyl)methanone], the IC50 (HCT116 MTAP null cells; HCT116-MTAP null, 144 h) was 71 nM and the IC50 (HCT116 WT cells; Homo sapiens, HCT-116, 144 h) was 6440 nM.
`Nc1nc2cnc(C(=O)N3CCC(F)(F)C[C@H]3c3ccc(OC(F)(F)F)cc3)cc2c2c1COC2` (single isomer, unassigned) [Example 601] was tested, and the IC50 (HCT116 MTAP null cells; HCT116-MTAP null, 144 h) was > 10000 nM and the IC50 (HCT116 WT cells; Homo sapiens, HCT-116, 144 h) was > 10000 nM.
`Cn1ncc2c(N)nc3ccc(C(=O)N4CCOC[C@@H]4c4ccc(OC(F)F)nn4)cc3c21` [Example 553, (4-amino-1-methyl-1H-pyrazolo[4,3-c]quinolin-8-yl)((3S)-3-(6-(difluoromethoxy)-3-pyridazinyl)-4-morpholinyl)methanone] showed an IC50 (HCT116 MTAP null cells; HCT116-MTAP null, 144 h) of 513 nM and an IC50 (HCT116 WT cells; Homo sapiens, HCT-116, 144 h) of 32500 nM.
In the case of `Nc1nc2ccc(C(=O)N3CCOC[C@@H]3c3ccc(C(F)(F)F)cc3)cc2c2cnccc12` [Example 503, (5-aminobenzo[c][2,6]naphthyridin-9-yl)((3S)-3-(4-(trifluoromethyl)phenyl)-4-morpholinyl)methanone], the IC50 (HCT116 MTAP null cells; HCT116-MTAP null, 144 h) is reported as 39 nM and the IC50 (HCT116 WT cells; Homo sapiens, HCT-116, 144 h) is reported as 867 nM.
With `C[C@H]1OCc2c1c(N)nc1cnc(C(=O)N3CCOC[C@@H]3c3ccc(S(F)(F)(F)(F)F)cc3)cc21` [Example 417, ((3R)-4-amino-3-methyl-1,3-dihydrofuro[3,4-c][1,7]naphthyridin-8-yl)((3S)-3-(4-(pentafluoro-lambda~6~-sulfanyl)phenyl)-4-morpholinyl)methanone] the IC50 (HCT116 MTAP null cells; HCT116-MTAP null, 144 h) was 17 nM and the IC50 (HCT116 WT cells; Homo sapiens, HCT-116, 144 h) was 523 nM.
Work on `C[C@@H]1COC[C@H](c2ccc(OC(F)(F)F)cc2)N1C(=O)c1ccc2nc(N)c3c(c2c1)CO[C@@H]3C` [Example 536, ((3R)-4-amino-3-methyl-1,3-dihydrofuro[3,4-c]quinolin-8-yl)((3R,5S)-3-methyl-5-(4-(trifluoromethoxy)phenyl)-4-morpholinyl)methanone] yielded an IC50 (HCT116 MTAP null cells; HCT116-MTAP null, 144 h) of 19 nM and an IC50 (HCT116 WT cells; Homo sapiens, HCT-116, 144 h) of 646 nM.
Molecule `Nc1nc2cc(Cl)c(C(=O)N3CCOC[C@@H]3c3ccc(S(F)(F)(F)(F)F)cc3)cc2c2c1COC2` [Example 418, (4-amino-7-chloro-1,3-dihydrofuro[3,4-c]quinolin-8-yl)((3S)-3-(4-(pentafluoro-lambda~6~-sulfanyl)phenyl)-4-morpholinyl)methanone] has an IC50 (HCT116 MTAP null cells; HCT116-MTAP null, 144 h) of 10 nM and an IC50 (HCT116 WT cells; Homo sapiens, HCT-116, 144 h) of 243 nM.
`C[C@H]1OCc2c1c(N)nc1ccc(C(=O)N3CCOC[C@H]3c3ccc(F)c(OC(F)(F)F)c3)cc21` (racemic) [Example 373, ((3R)-4-amino-3-methyl-1,3-dihydrofuro[3,4-c]quinolin-8-yl)((3R)-3-(4-fluoro-3-(trifluoromethoxy)phenyl)-4-morpholinyl)methanone and ((3R)-4-amino-3-methyl-1,3-dihydrofuro[3,4-c]quinolin-8-yl)((3S)-3-(4-fluoro-3-(trifluoromethoxy)phenyl)-4-morpholinyl)methanone] showed an IC50 (HCT116 MTAP null cells; HCT116-MTAP null, 144 h) of 442 nM and an IC50 (HCT116 WT cells; Homo sapiens, HCT-116, 144 h) of 7820 nM.
`Nc1nc2cc(F)c(C(=O)N3CCOC[C@@H]3c3ccc(C(F)(F)F)cc3)cc2c2c1CCO2` [Example 407, (4-amino-7-fluoro-2,3-dihydrofuro[3,2-c]quinolin-8-yl)((3S)-3-(4-(trifluoromethyl)phenyl)-4-morpholinyl)methanone] was tested, and the IC50 (HCT116 MTAP null cells; HCT116-MTAP null, 144 h) was 416 nM and the IC50 (HCT116 WT cells; Homo sapiens, HCT-116, 144 h) was 4210 nM.
`C[C@@H]1COC[C@H](c2ccc(OC(F)F)nn2)N1C(=O)c1cc2c3c(c(N)nc2cc1F)[C@@H](C)OC3` [Example 562, ((3R)-4-amino-7-fluoro-3-methyl-1,3-dihydrofuro[3,4-c]quinolin-8-yl)((3S,5R)-3-(6-(difluoromethoxy)-3-pyridazinyl)-5-methyl-4-morpholinyl)methanone] was tested, and the IC50 (HCT116 MTAP null cells; HCT116-MTAP null, 144 h) was 6 nM and the IC50 (HCT116 WT cells; Homo sapiens, HCT-116, 144 h) was 84 nM.
With `C[C@@H]1COC[C@H](c2ccc(OC(F)(F)F)cc2)N1C(=O)c1cc2c(cc1F)nc(N)c1c2cnn1C` [Example 532, (4-amino-7-fluoro-3-methyl-3H-pyrazolo[3,4-c]quinolin-8-yl)((3R,5S)-3-methyl-5-(4-(trifluoromethoxy)phenyl)-4-morpholinyl)methanone] the IC50 (HCT116 MTAP null cells; HCT116-MTAP null, 144 h) was 19 nM and the IC50 (HCT116 WT cells; Homo sapiens, HCT-116, 144 h) was 400 nM.
`Cn1ncc2c(N)nc3cc(F)c(C(=O)N4C[C@@H](CO)[C@H](c5ccc(C(F)(F)F)cc5F)C4)cc3c21` [Example 446, (4-amino-7-fluoro-1-methyl-1H-pyrazolo[4,3-c]quinolin-8-yl)((3R,4S)-3-(2-fluoro-4-(trifluoromethyl)phenyl)-4-(hydroxymethyl)-1-pyrrolidinyl)methanone] was tested, and the IC50 (HCT116 MTAP null cells; HCT116-MTAP null, 144 h) was 14 nM and the IC50 (HCT116 WT cells; Homo sapiens, HCT-116, 144 h) was 240 nM.
Molecule `Cn1ncc2c(N)nc3cc(F)c(C(=O)N4CC[C@H](Oc5ccc(C(F)(F)F)cc5)C4)cc3c21` (single isomer, unassigned) [Example 472] has an IC50 (HCT116 MTAP null cells; HCT116-MTAP null, 144 h) of 190 nM and an IC50 (HCT116 WT cells; Homo sapiens, HCT-116, 144 h) of 4470 nM.
With `C[C@@H]1COC[C@H](c2ccc(C(F)(F)F)cc2)N1C(=O)c1cc2c3c(c(N)nc2cn1)COC3` [Example 523, (4-amino-1,3-dihydrofuro[3,4-c][1,7]naphthyridin-8-yl)((3R,5S)-3-methyl-5-(4-(trifluoromethyl)phenyl)-4-morpholinyl)methanone] the IC50 (HCT116 MTAP null cells; HCT116-MTAP null, 144 h) was 9 nM and the IC50 (HCT116 WT cells; Homo sapiens, HCT-116, 144 h) was 213 nM.

From patent publication US11845760B2, “PRMT5 inhibitors” (AMGEN INC., priority 2020, dated 2023)
